For assay [1], the target named is T1, Amine oxidase [flavin-containing] A (Homo sapiens, UniProt P21397).
T1 sequence (P21397 whole entry): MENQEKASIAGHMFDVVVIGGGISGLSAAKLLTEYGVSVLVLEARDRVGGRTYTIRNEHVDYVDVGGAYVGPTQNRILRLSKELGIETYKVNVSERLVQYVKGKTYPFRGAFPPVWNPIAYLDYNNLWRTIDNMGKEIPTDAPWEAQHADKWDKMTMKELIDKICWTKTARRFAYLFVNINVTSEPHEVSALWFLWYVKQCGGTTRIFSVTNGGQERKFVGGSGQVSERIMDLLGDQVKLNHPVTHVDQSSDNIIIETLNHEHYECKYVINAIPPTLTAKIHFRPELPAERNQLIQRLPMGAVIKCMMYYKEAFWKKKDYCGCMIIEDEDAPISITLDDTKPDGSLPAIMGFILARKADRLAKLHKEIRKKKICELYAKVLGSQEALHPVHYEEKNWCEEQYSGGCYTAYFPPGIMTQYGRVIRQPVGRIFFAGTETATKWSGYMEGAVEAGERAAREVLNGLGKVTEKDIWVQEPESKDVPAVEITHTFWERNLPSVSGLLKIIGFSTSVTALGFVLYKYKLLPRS
Kind of assay: Inhibition of recombinant human MAO-A assessed as measuring amount of 4-hydroxyquinoline using kynuramine as substrate incubated for 20 mins by fluorescence spectrophotometry.

The target of assay [2] is T2, 1,25-dihydroxyvitamin D(3) 24-hydroxylase, mitochondrial (Homo sapiens, UniProt Q07973). Kind of assay: Inhibition of CYP24 (unknown origin). The class given is ADME.
T2 sequence (Q07973 whole entry): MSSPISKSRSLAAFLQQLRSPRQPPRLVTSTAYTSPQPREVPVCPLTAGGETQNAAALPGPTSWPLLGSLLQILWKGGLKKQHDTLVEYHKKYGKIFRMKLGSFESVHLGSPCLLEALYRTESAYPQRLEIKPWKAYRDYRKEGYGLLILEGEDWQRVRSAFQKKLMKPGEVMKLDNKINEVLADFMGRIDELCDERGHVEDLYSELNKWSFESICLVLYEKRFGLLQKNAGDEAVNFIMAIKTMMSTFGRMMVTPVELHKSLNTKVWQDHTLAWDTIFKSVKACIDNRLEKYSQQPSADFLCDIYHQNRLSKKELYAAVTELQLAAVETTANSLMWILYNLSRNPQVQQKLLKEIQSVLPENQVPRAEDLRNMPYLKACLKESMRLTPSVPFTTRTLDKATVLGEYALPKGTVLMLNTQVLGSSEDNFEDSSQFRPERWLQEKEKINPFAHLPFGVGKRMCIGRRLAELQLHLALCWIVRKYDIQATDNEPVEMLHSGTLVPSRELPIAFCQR
The target of assay [3] is T3, Amine oxidase [flavin-containing] B (Homo sapiens, UniProt P27338).
T3 sequence (P27338 whole entry): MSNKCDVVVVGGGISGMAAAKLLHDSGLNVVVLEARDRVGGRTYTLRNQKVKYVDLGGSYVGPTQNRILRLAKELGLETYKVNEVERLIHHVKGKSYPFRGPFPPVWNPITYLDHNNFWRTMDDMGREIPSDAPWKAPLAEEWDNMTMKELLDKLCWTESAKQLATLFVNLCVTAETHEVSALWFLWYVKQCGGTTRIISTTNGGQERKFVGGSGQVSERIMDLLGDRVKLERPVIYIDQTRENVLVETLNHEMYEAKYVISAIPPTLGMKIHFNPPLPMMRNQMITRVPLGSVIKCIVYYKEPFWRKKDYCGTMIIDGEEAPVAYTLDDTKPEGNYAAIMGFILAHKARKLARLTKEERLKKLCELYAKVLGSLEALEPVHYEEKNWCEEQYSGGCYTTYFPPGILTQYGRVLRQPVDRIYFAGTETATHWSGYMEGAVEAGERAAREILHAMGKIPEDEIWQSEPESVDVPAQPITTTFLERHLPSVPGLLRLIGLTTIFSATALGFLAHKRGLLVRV
As to the kind of experiment: Inhibition of human MAO-B assessed as measuring amount of 4-hydroxyquinoline using kynuramine as substrate incubated for 20 mins by fluorescence spectrophotometry.

Assay [4] deals with T1, Amine oxidase [flavin-containing] A. Kind of assay: Inhibition of human MAO-A assessed as measuring amount of 4-hydroxyquinoline using kynuramine as substrate incubated for 20 mins by fluorescence spectrophotometry.
The species named for assay [5] is Homo sapiens. As to the kind of experiment: Selectivity index, ratio of IC50 for human MAO-A to IC50 for human MAO-B.
The subject of assay [6] is RAW264.7. As to the kind of experiment: Inhibition of ROS production in LPS-stimulated mouse RAW264.7 cells preincubated for 1 hr followed by LPS stimulation measured after 24 hrs by fluorometry. Type of assay: functional, cell-based.
For assay [7], the system named is A549. Kind of assay: Cytotoxicity against human A549 cells assessed as cell growth inhibition incubated for 72 hrs by sulforhodamine B assay. Type of assay: functional, cell-based. The following applies: A549, 72 h.
The test system of assay [8] is HeLa. As to the kind of experiment: Cytotoxicity against human HeLa cells assessed as cell growth inhibition incubated for 72 hrs by sulforhodamine B assay. Type of assay: functional, cell-based.
The test system of assay [9] is MCF7. Kind of assay: cells. Type of assay: functional, cell-based. The conditions noted are these: Homo sapiens, MCF7, 72 h.
Description: Cytotoxicity against human MCF7 cells assessed as cell growth inhibition incubated for 3 days by MTT assay
Assay [10] concerns L02. As to the kind of experiment: Antiproliferative activity against human L02 cells assessed as cell growth inhibition at 500 uM for 24 to 72 hrs by MTT assay relative to control. Type of assay: functional. Set-up: scale not given: the % may be the effect or the level left. The following applies: time 24-72 hrs.
For assay [11], the system named is HepG2. Kind of assay: Downregulation of phosphorylated Akt in human HepG2 cells xenografted in BALB/c mouse at 160 mg/kg/day, ip for 19 days and measured after 24 hrs post last dose by immunohistochemical analysis relative to control. The class given is functional. The conditions noted are these: time 20 day.
The subject of assay [12] is HepG2. Kind of assay: Downregulation of MMP2 in human HepG2 cells xenografted in BALB/c mouse at 160 mg/kg/day, ip for 19 days and measured after 24 hrs post last dose by immunohistochemical analysis relative to control. Type of assay: functional. The conditions noted are these: time 20 day.
Assay [13] deals with HepG2. Kind of assay: Downregulation of MMP9 in human HepG2 cells xenografted in BALB/c mouse at 160 mg/kg/day, ip for 19 days and measured after 24 hrs post last dose by immunohistochemical analysis relative to control. The class given is functional. The conditions noted are these: time 20 day.
Assay [14] deals with HepG2. As to the kind of experiment: Downregulation of NF-kappaB in human HepG2 cells xenografted in BALB/c mouse at 160 mg/kg/day, ip for 19 days and measured after 24 hrs post last dose by immunohistochemical analysis relative to control. The conditions noted are these: time 20 day. Type of assay: functional.
The test system of assay [15] is HepG2. Kind of assay: Antiproliferative activity against human HepG2 cells assessed as cell growth inhibition at 500 uM for 24 to 72 hrs by MTT assay relative to control. Set-up: scale not given: the % may be the effect or the level left. The class given is functional. The conditions noted are these: time 24-72 hrs.
Assay [16] has as its system Fusarium oxysporum. As to the kind of experiment: Antifungal activity against Fusarium oxysporum assessed as fungal growth inhibition. Type of assay: functional, organism-based.
Assay [17] relates to Fusarium solani. Kind of assay: Antifungal activity against Fusarium solani assessed as fungal growth inhibition. The class given is functional, organism-based.
Assay [18] has as its system MDA-MB-231. As to the kind of experiment: Cytotoxicity against human MDA-MB-231 cells assessed as cell growth inhibition incubated for 72 hrs by alamar blue staining based assay. Type of assay: functional. The conditions noted are these: MDA-MB-231, 72 h.
Assay [19] deals with Trypanosoma brucei brucei. As to the kind of experiment: Antitrypanosomal activity against Trypanosoma brucei brucei trypomastigotes assessed as parasite viability measured after 48 hrs by resazurin based fluorescence assay. Type of assay: functional, organism-based.
The subject of assay [20] is Trypanosoma brucei brucei. As to the kind of experiment: Antitrypanosomal activity against Trypanosoma brucei brucei trypomastigotes assessed as parasite viability measured after 48 hrs by resazurin based fluorescence assay relative to control. Type of assay: functional.
Assay [21] can be described thus: Antioxidant activity assessed as superoxide scavenging activity incubated for 20 mins by absorbance based assay. The class given is functional.
A short description of assay [22]: Antioxidant activity assessed as hydroxyl radical scavenging activity incubated for 30 mins by absorbance based assay. The class given is functional.
A short description of assay [23]: Antioxidant activity assessed as DPPH radical scavenging activity incubated for 30 mins under dark condition by absorbance based assay. Type of assay: functional.
The subject of assay [24] is DU-145. Kind of assay: Cytotoxicity against 1,25-(OH)2D3-treated human DU-145 cells assessed as cell growth inhibition incubated for 96 hrs and re-dosed after 48 hrs […] by MTT assay relative to control. More on the design: scale not given: the % may be the effect or the level left. The conditions noted are these: time 273 hrs. The class given is functional.

Assay [25] concerns the target T2, 1,25-dihydroxyvitamin D(3) 24-hydroxylase, mitochondrial. As to the kind of experiment: Displacement of 25-hydroxy-[26,27-methyl-3H]-vitamin D3 from CYP24 in 1,25(OH)2D3-treated human DU-145 cells using 25-(OH)D3 as substrate pretreated with 1,25(OH)2D3 for 24 hrs followed by compound addition measured after 30 mins by HPLC analysis. Type of assay: cell-based.

For assay [26], the target named is T1, Amine oxidase [flavin-containing] A. Kind of assay: Inhibition of MAO-A (unknown origin).
Assay [27] has as its target T3, Amine oxidase [flavin-containing] B. Kind of assay: Inhibition of MAO-B (unknown origin).
Assay [28] is filed under the species Homo sapiens. Kind of assay: Selectivity index, ratio of IC50 for MAO-A (unknown origin) to IC50 for MAO-B (unknown origin).
The test system of assay [29] is Nannizzia gypsea. Kind of assay: Antifungal activity against Microsporum gypseum C 115 2000 assessed as fungal growth inhibition by cup-plate method. Type of assay: functional.
In assay [30] the test system is BGC-823. As to the kind of experiment: Cytotoxicity against human BGC-823 cells assessed as cell growth inhibition by MTT assay. Type of assay: functional, cell-based.
Assay [31] deals with Aspergillus fumigatus. Kind of assay: Antifungal activity against Aspergillus fumigatus MTCC 343 assessed as fungal growth inhibition. The class given is functional.
Assay [32] deals with Candida albicans. Kind of assay: Antifungal activity against Candida albicans MTCC 227 assessed as fungal growth inhibition. The class given is functional.
Assay [33] relates to HepG2. As to the kind of experiment: Antiproliferative activity against human HepG2 cells assessed as cell growth inhibition by MTT assay. Type of assay: functional, cell-based.
Assay [34] concerns MCF7. Kind of assay: Antiproliferative activity against human MCF7 cells assessed as cell growth inhibition by MTT assay. The class given is functional, cell-based.
Assay [35] relates to T-24. Kind of assay: Antiproliferative activity against human T24 cells assessed as cell growth inhibition by MTT assay. Type of assay: functional, cell-based.
The subject of assay [36] is HT-29. Kind of assay: Antiproliferative activity against human HT-29 cells assessed as cell growth inhibition by MTT assay. Type of assay: functional, cell-based.
For assay [37], the system named is A549. Kind of assay: Antiproliferative activity against human A549 cells assessed as cell growth inhibition by MTT assay. The class given is functional, cell-based.

The structures appear in SMILES notation. pIC50: −log10 of the molar value. ≈ marks a conversion by molar mass, not a printed value.

Take `O=C1CCCc2ccc(OCc3ccc(Cl)cc3)cc21`: the pIC50 in [1] is 7.44.
The compound `COc1ccc2c(c1)CC/C(=C\c1cc(C(F)(F)F)ccc1C(F)(F)F)C2=O` gave a pIC50 in assay [2] of 6.05.
With `COc1ccc2c(c1)C(=O)/C(=C/c1ccc[nH]1)CC2`, the pIC50 in assay [3] was 6.15; in assay [4] it was 5.71. Further, the Ratio IC50 in assay [5] came to 2.8.
In turn, `Nc1ccc2c(c1)CC/C(=C\c1ccccc1F)C2=O` showed a pIC50 in [6] of 6.60.
Turning to `O=C1c2c(O)cccc2[C@@H](O[C@@H]2O[C@H](CO)[C@@H](O)[C@H](O)[C@H]2O)C[C@@H]1[C@H]1C[C@H](O)c2c(O[C@@H]3O[C@H](CO)[C@@H](O)[C@H](O)[C@H]3O)ccc(O)c2C1=O`, the pIC50 in assay [7] was 4.13; in [8], 4.07.
`COc1ccc(C2C(C#N)=C(N)Oc3c2s/c(=N\c2ccc(Br)cc2)n3/N=C2\CCCc3cc(OC)ccc32)cc1` (configuration not stated) had a pIC50 in assay [9] of 6.03.
Take `COc1ccc2c(c1)C(=O)CCC2`: the Activity in [10] was more than 50%; in [11], 2.91%; in assay [12], 9.69%; in assay [13] it was 7.64%; in assay [14], 35.47%; in assay [15], more than 50%.
On to `O=C1C[C@@H](O)Cc2cc(O)c(O)cc21`, for which the EC50 in [16] stood at 413 µg/mL (≈ 2130 µM); in assay [17], 48.5 µg/mL (≈ 250 µM).
Consider `C[C@H]1CC(=O)c2c(O)cccc2[C@@H]1O`, for which the pIC50 in [18] is less than 3.28.
In the case of `O=C1/C(=C/c2ccccc2-c2ccccc2)CCc2cc(O)ccc21`, in assay [19], the pIC50 is 6.40. The Activity in assay [20] stood at 0.7%.
For the compound `O=C(/C=C/c1ccc(O)cc1)OC[C@H]1O[C@@H](Oc2ccc(O)c3c2C[C@H](O)CC3=O)C[C@@H](O)[C@@H]1O`, the pIC50 was 4.21 in assay [21], 5.70 in [22] and 4.24 in assay [23].
Consider `COc1ccc2c(c1)CCC(Cc1ccc(O)cc1)C2=O` (configuration not stated), for which the Activity in assay [24] amounted to 25%. Further, in [25], the pIC50 was 5.46.
In the case of `O=C1/C(=C/c2cccc(Br)c2)CCc2ccc(O)cc21`, the pIC50 in [26] is 6.12; in assay [27], 7.89. Moreover, the Ratio IC50 in assay [28] stood at 58.
Turning to `O=C1/C(=C/c2ccc(Cl)cc2)CCc2ccccc21`, the MIC in assay [29] turned out to be 3 µg/mL (≈ 11.2 µM).
Regarding `CCCCOC1CCC(=O)c2c(O)ccc(O)c21` (configuration not stated), the IC50 in assay [30] turned out to be 126 µg/mL (≈ 503 µM).
For the compound `COc1ccc2c(c1)CC[C@@H]1C2=NN(C2=NC(=O)CS2)[C@@H]1c1ccccc1`, the MIC in [31] and in assay [32] was 12.5 µg/mL (≈ 33.1 µM) each time.
Regarding `CC(C)c1ccc2c(c1)C(C)(C)CC(Sc1nc(N)n(S(=O)(=O)c3ccc(Cl)c([N+](=O)[O-])c3)n1)C2=O` (configuration not stated), the pIC50 in assay [33] was 4.67; in assay [34], 4.54; in assay [35] it was 4.57; in [36], 4.65; in assay [37], 5.00.

The record behind these values is ChEMBL document CHEMBL5136978, “Research progress in pharmacological activities and structure-activity relationships of tetralone scaffolds as pharmacophore and fluorescent skeleton” (Eur J Med Chem, 2022).
